Calls of active or inactive are those of the source. The calls are words filed in the database; no cut-off is given here.
Legend:
[1] = biological target: T1, Stimulator of interferon genes protein (Homo sapiens, UniProt Q86WV6); test: Inhibition of cGAMP-induced STING R232 mutant transfected human THP-1 cells preincubated with compound for 6 hrs followed by cGAMP addition and measured after 18 hrs by QUANTI-Luc based microplate reader analysis; assay type: cell-based
Target sequence in this assay (Q86WV6 whole entry, looked up, change not shown): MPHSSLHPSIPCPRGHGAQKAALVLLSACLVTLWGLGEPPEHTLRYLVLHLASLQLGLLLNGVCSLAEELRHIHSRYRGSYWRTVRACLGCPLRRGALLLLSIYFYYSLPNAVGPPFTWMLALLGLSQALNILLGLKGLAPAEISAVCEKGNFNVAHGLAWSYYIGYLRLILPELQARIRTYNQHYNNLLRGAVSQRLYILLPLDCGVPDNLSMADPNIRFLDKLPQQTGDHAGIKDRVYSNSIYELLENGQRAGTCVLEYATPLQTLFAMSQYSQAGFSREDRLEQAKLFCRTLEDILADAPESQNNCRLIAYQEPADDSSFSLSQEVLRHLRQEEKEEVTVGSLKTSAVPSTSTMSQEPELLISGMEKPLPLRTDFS

[2] = biological target: T2, Stimulator of interferon genes protein (Mus musculus) (UniProt Q3TBT3); test: Inhibition of STING in mouse BMDM cells assessed as inhibition of cGAMP-induced CXCL-10 release at 0.05 to 0.5 uM pretreated with compound for 6 hrs followed by cGAMP addition and measured after 18 hrs by ELISA; assay type: cell-based; conditions: dose 0.05-0.5 µM, time 24.0 hrs
T2 sequence (whole entry): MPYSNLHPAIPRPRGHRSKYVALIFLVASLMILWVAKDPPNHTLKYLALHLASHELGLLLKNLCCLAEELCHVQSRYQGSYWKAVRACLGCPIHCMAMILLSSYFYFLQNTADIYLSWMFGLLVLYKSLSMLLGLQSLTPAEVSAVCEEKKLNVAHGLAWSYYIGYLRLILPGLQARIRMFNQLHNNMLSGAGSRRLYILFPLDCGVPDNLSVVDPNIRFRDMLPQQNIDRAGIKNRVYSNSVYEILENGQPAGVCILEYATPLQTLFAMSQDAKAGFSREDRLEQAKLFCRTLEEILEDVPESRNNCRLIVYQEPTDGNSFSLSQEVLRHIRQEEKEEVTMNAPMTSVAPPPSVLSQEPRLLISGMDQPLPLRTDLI

[3] = biological target: T3, Stimulator of interferon genes protein (Homo sapiens, UniProt Q86WV6, G230A/R293Q/R71H); test: Inhibition of diABZI-induced STING HAQ mutant transfected in human THP1-Blue ISG cells preincubated with compound for 6 hrs followed by diABZI addition and measured after 18 hrs by QUANTI-Blue based microplate reader analysis; assay type: cell-based
[4] = biological target: T3, Stimulator of interferon genes protein; test: Inhibition of cGAMP-induced STING HAQ mutant transfected in human THP1-Blue ISG cells preincubated with compound for 6 hrs followed by cGAMP addition and measured after 18 hrs by QUANTI-Blue based microplate reader analysis; assay type: cell-based
[5] = biological target: T1, Stimulator of interferon genes protein; test: Inhibition of cGAMP-induced STING S154 mutant transfected in human THP-1 cells preincubated with compound for 6 hrs followed by cGAMP addition and measured after 18 hrs by QUANTI-Luc based microplate reader analysis; assay type: cell-based
Target sequence in this assay (Q86WV6 whole entry, looked up, change not shown): as the sequence (Q86WV6 whole entry, looked up, change not shown) above

[6] = Metabolic stability in human liver microsomes assessed as half life at 10 uM in presence of NADPH by LC-MS/MS analysis; assay type: ADME, Microsome
[7] = biological target: T1, Stimulator of interferon genes protein; test: Inhibition of STING in human THP-1 cells assessed as inhibition of cGAMP-induced IFN-beta release at 0.05 to 0.5 uM pretreated with compound for 6 hrs followed by cGAMP addition and measured after 18 hrs by ELISA; assay type: cell-based; conditions: dose 0.05-0.5 µM, time 24.0 hrs
Target sequence in this assay (Q86WV6 whole entry): as the sequence (Q86WV6 whole entry, looked up, change not shown) above

[8] = Metabolic stability in mouse liver microsomes assessed as half life at 10 uM in presence of NADPH by LC-MS/MS analysis; assay type: ADME, Microsome
[9] = Metabolic stability in mouse plasma assessed as half life in presence of NADPH by LC-MS/MS analysis; assay type: ADME, cell-free
[10] = biological target: T1, Stimulator of interferon genes protein; test: Inhibition of STING activation in human THP1-Blue ISG cells assessed as decrease in cGAMP-induced STING phosphorylation at 0.1 to 1 uM preincubated with compound for 6 hrs followed by cGAMP addition and measured after 3 hrs by Western blotting analysis; assay type: cell-based; conditions: dose 0.1-1 µM, time 9.0 hrs
Target sequence in this assay (Q86WV6 whole entry): as the sequence (Q86WV6 whole entry, looked up, change not shown) above

[11] = biological target: T1, Stimulator of interferon genes protein; test: Inhibition of STING activation in human THP1-Blue ISG cells assessed as decrease in cGAMP-induced IRF3 phosphorylation at 0.1 to 1 uM preincubated with compound for 6 hrs followed by cGAMP addition and measured after 3 hrs by Western blotting analysis; assay type: cell-based; conditions: dose 0.1-1 µM, time 9.0 hrs
Target sequence in this assay (Q86WV6 whole entry): as the sequence (Q86WV6 whole entry, looked up, change not shown) above

[12] = biological target: T2, Stimulator of interferon genes protein (Mus musculus); test: Inhibition of STING in mouse BMDM cells assessed as inhibition of cGAMP-induced IFN-beta release at 0.05 to 0.5 uM pretreated with compound for 6 hrs followed by cGAMP addition and measured after 18 hrs by ELISA; assay type: cell-based; conditions: dose 0.05-0.5 µM, time 24.0 hrs
[13] = Metabolic stability in human plasma assessed as half life in presence of NADPH by LC-MS/MS analysis; assay type: ADME, cell-free
[14] = biological target: T2, Stimulator of interferon genes protein (Mus musculus); test: In vivo inhibition of cGAMP-induced STING activation in autoimmune disease female C57BL/6 mouse model assessed as decrease in cGAMP-induced serum INF-beta level at 10 mg/kg, sc pretreated with compound for 2 hrs followed by cGAMP addition and measured after 3 hrs by ELISA; assay type: functional, organism-based
[15] = biological target: T4, Stimulator of interferon genes protein (Mus musculus, UniProt Q3TBT3); test: Inhibition of cGAMP-induced mouse STING transfected in human THP-1 cells preincubated with compound for 6 hrs followed by cGAMP addition and measured after 18 hrs by QUANTI-Luc based microplate reader analysis; assay type: cell-based
T4 sequence (Q3TBT3 whole entry): T2 sequence (whole entry)

[16] = Cmax in mouse at 20 mg/kg, po by LC-MS/MS analysis; assay type: ADME, organism-based; conditions: in vivo, read-out: Cmax
[17] = biological target: T2, Stimulator of interferon genes protein (Mus musculus); test: In vivo inhibition of cGAMP-induced STING activation in autoimmune disease female C57BL/6 mouse model assessed as decrease in cGAMP-induced serum CXCL-10 level at 10 mg/kg, sc pretreated with compound for 2 hrs followed by cGAMP addition and measured after 3 hrs by ELISA; assay type: functional, organism-based
[18] = Cytotoxicity against human THP1-Blue ISG cells assessed as inhibition of cell growth at 10 uM incubated for 24 hrs by MTS assay relative to control; assay type: toxicity, cell-based

T3 sequence (Q86WV6 whole entry R71H/G230A/R293Q): as the sequence (Q86WV6 whole entry, looked up, change not shown) above, with R71H, G230A, R293Q counted along it

Row | IC50 [1] [nM] | inhibition [2] | IC50 [3] [nM] | IC50 [4] [nM] | IC50 [5] [nM] | half-life at 10 µM [6] [h] | inhibition [7] | half-life at 10 µM [8] [h] | half-life [9] [h] | inhibition [10] | inhibition [11] | inhibition [12] | half-life [13] [h] | inhibition [14] | IC50 [15] [nM] | Cmax [16] [nM] | inhibition [17] | SMILES | inhibition at 24 h, 10 µM [18] [%]
1 | 30 | Active | 80 | 80 | 260 | > 1 | Active | > 1 | > 4 | Active | Active | Active | > 4 | Active | 30 | 200 | Active | COc1ccc2c(c1)C(=O)N(c1ccc(C(C)(C)C)c(Cl)c1)C(c1cc3cc(-c4ccc(C(=O)Nc5ccc(O)c(NS(C)(=O)=O)c5)cc4)ccc3o1)C2C(N)=O (stereo not given) | 37.3
2 | 30 | Active | 110 | 100 | 210 | > 1 | Active | > 1 |  | Active | Active | Active | > 4 | Active | 20 | 200 | Active | CC(C)(C)c1ccc(N2C(=O)c3ccccc3C(C(N)=O)C2c2cc3cc(-c4ccc(C(=O)Nc5ccc(O)c(NS(C)(=O)=O)c5)cc4)ccc3o2)cc1Cl (stereo not given) | 36.5
